What is called IC50 is the point on the concentration scale where inhibition reaches its midpoint. The viability, T/C is the result in the treated group divided by that in the control group, in per cent.

This note sets out measurements from PubChem BioAssay AID2060605 (Molecular Pharmacology Branch, DTP, NCI, 2025).

This assay relates to 947758-054-R-J2-PDC spheroid growth, percent test/control. The experiment in a line: Anticancer human tumor 947758-054-R-J2-PDC patient-derived colon adenocarcinoma cell line growth inhibition [CLK]. The conditions noted are these: spheroids with HUVEC and MSC; for viability, T/C: stronger effect = lower value. In short, it runs like this: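 Patient-derived tumor cells grown as complex spheroids with HUVEC endothelial cells and mesenchymal stem cells, treated with drug combinations. Concentrations descend in half-log steps from near clinical Cmax, or from 10 microM if Cmax unknown.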

Values joined by “and” are separate entries in the source; they are usually repeats but may differ in a detail not shown here. Identical values can stand only once. Where only a bound is given, the exact number is not on record here.
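Further: spheroids exposed to compounds for one week before readout.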
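Wherever viability, T/C is given: 100% = DMSO vehicle control wells.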

Take `Cn1ncnc1[C@H]1c2n[nH]c(=O)c3cc(F)cc(c23)N[C@@H]1c1ccc(F)cc1` + CNC(=O)c1ccc(Nc2nc(OC3CCCC3)c3c(-c4ccc5nc(C)oc5c4)c[nH]c3n2)c(OC)c1: the concentration for half-maximal inhibition (IC50) was over 100 nM (curve of first compound, second compound 0.0316 µM); over 100 nM (curve of first compound, second compound 0.1 µM); 36.7 nM (curve of first compound, second compound 0.316 µM); under 0.316 nM (curve of first compound, second compound 1 µM); under 0.316 nM (curve of first compound, second compound 3.16 µM); under 0.316 nM (curve of first compound, second compound 10 µM). Also, the viability, T/C is 78.7% (second compound 0.0316 µM, first compound 0.000316 µM); 102% (second compound 0.0316 µM, first compound 0.001 µM); 84.3% (second compound 0.0316 µM, first compound 0.00316 µM); 96.9% (second compound 0.0316 µM, first compound 0.01 µM); 90.4% (second compound 0.0316 µM, first compound 0.0316 µM); 82.6% (second compound 0.0316 µM, first compound 0.1 µM). In addition, the viability, T/C is, setting by setting: (second compound 0.1 µM, first compound 0.000316 µM) 96.5%; (second compound 0.1 µM, first compound 0.001 µM) 88.6%; (second compound 0.1 µM, first compound 0.00316 µM) 81.3%; (second compound 0.1 µM, first compound 0.01 µM) 90.8%; (second compound 0.1 µM, first compound 0.0316 µM) 84.8%; (second compound 0.1 µM, first compound 0.1 µM) 58.9%. The viability, T/C reads like this: (second compound 0.316 µM, first compound 0.000316 µM) 69.7%; (second compound 0.316 µM, first compound 0.001 µM) 65%; (second compound 0.316 µM, first compound 0.00316 µM) 70.4%; (second compound 0.316 µM, first compound 0.01 µM) 77.9%; (second compound 0.316 µM, first compound 0.0316 µM) 51.4%; (second compound 0.316 µM, first compound 0.1 µM) 40.5%. In addition, the viability, T/C was 46.1% (second compound 1 µM, first compound 0.000316 µM); 45.1% (second compound 1 µM, first compound 0.001 µM); 42.3% (second compound 1 µM, first compound 0.00316 µM); 49.3% (second compound 1 µM, first compound 0.01 µM); 46% (second compound 1 µM, first compound 0.0316 µM); 24.6% (second compound 1 µM, first compound 0.1 µM). The viability, T/C was 38.9% (second compound 3.16 µM, first compound 0.000316 µM); 31.4% (second compound 3.16 µM, first compound 0.001 µM); 38.4% (second compound 3.16 µM, first compound 0.00316 µM); 42.6% (second compound 3.16 µM, first compound 0.01 µM); 38.6% (second compound 3.16 µM, first compound 0.0316 µM); 28.7% (second compound 3.16 µM, first compound 0.1 µM). Further, the viability, T/C (second compound 10 µM, first compound 0.000316 µM) is 33.4%; the viability, T/C (second compound 10 µM, first compound 0.001 µM) was 31.8%; the viability, T/C (second compound 10 µM, first compound 0.00316 µM) is 32.9%; the viability, T/C (second compound 10 µM, first compound 0.01 µM) was 48%; the viability, T/C (second compound 10 µM, first compound 0.0316 µM) is 28.9%; the viability, T/C (second compound 10 µM, first compound 0.1 µM) was 26.8%.

As for `CC(C)CC(NC(=O)C(Cc1ccccc1)NC(=O)c1cnccn1)B(O)O` (stereo unspecified), the viability, T/C reads like this: (compound 0.000949 µM) 89.3% and 86%; (compound 0.003 µM) 2.43% and 0.8%; (compound 0.00949 µM) 0.17% and 0.23%; (compound 0.03 µM) 0.24% and 0.3%; (compound 0.0949 µM) 0.19% and 0.27%; (compound 0.3 µM) 0.24% and 0.28%. The half-inhibitory concentration (IC50) (curve of compound) is 1.6 nM and 1.54 nM.

As to `CN1CCN(c2cc(C(=O)Nc3cc4cc(-c5cnn(C)c5)ccc4cn3)ccn2)CC1`, the viability, T/C runs as follows: (compound 0.316 µM) 5.15% [middle of 12 runs]; (compound 1 µM) 0.61% [middle of 11 runs]; (compound 3.16 µM) 0.65% [middle of 10 runs]; (compound 10 µM) 0.36% [middle of 11 runs]. Further, for the setting “compound alone, run of 09/18/2023”, the IC50 was 216 nM [middle of 10 runs].

Regarding `CCc1c2c(nc3ccc(O)cc13)-c1cc3c(c(=O)n1C2)COC(=O)[C@]3(O)CC`, the viability, T/C is 120% and 84.1% (compound 0.00316 µM); 34.2% and 32% (compound 0.01 µM); 23.7% and 20.8% (compound 0.0316 µM); 18.7% and 19% (compound 0.1 µM); 8.36% and 8.83% (compound 0.316 µM); 3.07% and 3.43% (compound 1 µM). Moreover, for the setting “curve of compound”, the IC50 was 8.48 nM and 7.07 nM.
